From PubChem BioAssay (NCI)
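48-hour exposure; five concentrations; linearly interpolated endpoints. The concentration for full growth arrest is given as TGI.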

What was measured:
Assay in all cases: inhibition of tumour cell growth, NCI panel, 48 h
U251 CNS = system: U251 CNS
SF-295 CNS = system: SF-295 CNS
HS 578T breast = system: HS 578T breast
K-562 leukemia = system: K-562 leukemia
HCT-116 colon = system: HCT-116 colon
CAKI-1 renal = system: CAKI-1 renal
IGROV1 ovarian = system: IGROV1 ovarian
MDA-MB-231 breast = system: MDA-MB-231 breast
SF-539 CNS = system: SF-539 CNS
COLO 205 colon = system: COLO 205 colon
MDA-MB-435 = system: MDA-MB-435
EKVX NSCLC = system: EKVX NSCLC
PC-3 prostate = system: PC-3 prostate
HL-60(TB) leukemia = system: HL-60(TB) leukemia
UACC-257 melanoma = system: UACC-257 melanoma
MOLT-4 leukemia = system: MOLT-4 leukemia
DU-145 prostate = system: DU-145 prostate
SR leukemia = system: SR leukemia
786-0 renal = system: 786-0 renal
SNB-19 CNS = system: SNB-19 CNS
A549 NSCLC = system: A549 NSCLC
SNB-75 CNS = system: SNB-75 CNS
A498 renal = system: A498 renal
OVCAR-8 ovarian = system: OVCAR-8 ovarian
SK-OV-3 ovarian = system: SK-OV-3 ovarian
SK-MEL-5 melanoma = system: SK-MEL-5 melanoma
CCRF-CEM leukemia = system: CCRF-CEM leukemia
MALME-3M melanoma = system: MALME-3M melanoma
OVCAR-5 ovarian = system: OVCAR-5 ovarian
HOP-62 NSCLC = system: HOP-62 NSCLC
SK-MEL-2 melanoma = system: SK-MEL-2 melanoma
SF-268 CNS = system: SF-268 CNS
UO-31 renal = system: UO-31 renal
HT29 colon = system: HT29 colon
LOX IMVI melanoma = system: LOX IMVI melanoma
HCT-15 colon = system: HCT-15 colon
TK-10 renal = system: TK-10 renal
KM12 colon = system: KM12 colon
SK-MEL-28 melanoma = system: SK-MEL-28 melanoma
RPMI-8226 leukemia = system: RPMI-8226 leukemia
NCI-H460 lung = system: NCI-H460 lung
NCI-H23 lung = system: NCI-H23 lung
T-47D breast = system: T-47D breast
NCI/ADR-RES ovarian = system: NCI/ADR-RES ovarian
ACHN renal = system: ACHN renal
SN12C renal = system: SN12C renal
MDA-N = system: MDA-N
UACC-62 melanoma = system: UACC-62 melanoma
NCI-H226 lung = system: NCI-H226 lung
SW-620 colon = system: SW-620 colon
OVCAR-4 ovarian = system: OVCAR-4 ovarian
HCC-2998 colon = system: HCC-2998 colon
MCF7 breast = system: MCF7 breast
M14 melanoma = system: M14 melanoma
NCI-H522 lung = system: NCI-H522 lung
RXF 393 renal = system: RXF 393 renal
HOP-92 NSCLC = system: HOP-92 NSCLC

Measured: TGI

C=CCOCn1cnc2c(N)ncnc21
not listed: NCI-H522 lung | RXF 393 renal | HOP-92 NSCLC
> 100 µM: all other assays above

O=C1CSc2nc3ccccc3n2/C=N\N1
not listed: HS 578T breast | IGROV1 ovarian | SF-539 CNS | EKVX NSCLC | HL-60(TB) leukemia | SNB-75 CNS | MALME-3M melanoma | HOP-62 NSCLC | T-47D breast
> 100 µM: all other assays above
